Experimental data reported in patent publication US10799496B2, “Naphthylenyl compounds for long-acting injectable compositions and related methods” (priority 2018, dated 2020).

Assays:
[1] = Whole blood stability assay; assay type: in vitro ADME; settings: prodrug 50 nM, fresh pooled human whole blood, 37 degrees C.; read-out: t1/2 at 37 degrees C. in human whole blood
Description: Naltrexone prodrug stability was assessed using freshly collected whole blood (within 24-hr collection) from pooled human (n=3) donors. The incubation mixtures were prepared by spiking the prodrugs into pre-warmed (37 degrees C.) fresh whole blood to a final concentration of 50 nM. After gentle mixing, aliquots of incubation mixtures were immediately transferred into four different 96-deep well plates. One plate was used for each time point. The plates were incubated at 37 degrees C. at a shaking speed of 100 rpm. At time points 15, 30, 60 and 120 minutes, the reaction was quenched by addition of a mixture of water and acetonitrile containing the internal standard (naltrexone-D3). Time point 0 minutes was prepared separately by spiking the prodrugs into a quenched whole blood to obtain a final concentration of 50 nM. All samples were vortexed at a low speed for 15 min and centrifuged at 3900 rpm for 15 min. Supernatants were transferred into 96-well plates for LC-MS/MS analysis to monitor the depletion of the prodrugs and the formation of naltrexone.
The amount of remaining prodrug and released naltrexone for each sample was quantitated against the calibration curves prepared with the whole blood. The human whole blood was purchased from BioreclamationIVT (Westbury, N.Y., USA). Naltrexone-D3 was purchased from CERILLIANT® (Round Rock, Tex., USA). […] Where multiple runs have been completed, average values are reported.

[2] = Pharmacokinetic evaluation of the release of naltrexone from Compound 2 in rats following a single intramuscular injection; assay type: in vivo, Sprague-Dawley rats; settings: for Compound 2i conc.: rat plasma
Description: Five male Sprague-Dawley rats were allowed to acclimate to the test facility for at least 2 days prior to study start. For dose administration of Compound 2, the rats were lightly anesthetized with isofluorane, the hind leg shaved and dosed intramuscularly with the formulation using a 21G needle. […] Serial whole blood samples were collected via sublingual route (˜150 μL) at 1, 8, and 24 hours post dose, and at 2, 4, 7, 10, 14, 17, 21, 24, 28, 35, 42, 49, 56, 63, 71, 78, 85, and 91 days post dose.
Blood samples were placed into K2EDTA blood collection tubes. After collection, blood samples were maintained chilled (on wet ice) and centrifuged (11,500 rpm for 2 minutes at 5 degrees C.) within 30 minutes to obtain plasma. Plasma was transferred into a single vial, 1.5 mL screw cap micro-centrifuge tube with inserts and stored at −80 degrees C. until analysis.
The formulation dosed was a crystalline suspension of Compound 2 (46 milligrams of Compound 2 dosed per animal), wherein the crystalline test article was characterized with a particle size distribution of Dv10=12.9 μm, Dv50=31.5 μm, and Dv90=63.1 μm (as measured via laser diffraction). The formulation was prepared the day before dosing. Details of the formulation dosed are described in Table D below.
Results of the above intramuscular rat study of Compound 2 are shown in Tables E and F. In particular, Table E reports the average blood plasma levels of naltrexone in rat (n=5) over 91 days following intramuscular administration.

O=C(Cc1cccc2c(CC(=O)Oc3ccc4c5c3O[C@H]3C(=O)CC[C@@]6(O)[C@@H](C4)N(CC4CC4)CC[C@]536)cccc12)Oc1ccc2c3c1O[C@H]1C(=O)CC[C@@]4(O)[C@@H](C2)N(CC2CC2)CC[C@]314 [Compound 1, bis((4R,4aS,7aR,12bS)-3-(cyclopropylmethyl)-4a-hydroxy-7-oxo-2,3,4,4a,5,6,7,7a-octahydro-1H-4,12-methanobenzofuro[3,2-e]isoquinolin-9-yl) 2,2′-(naphthalene-1,5-diyl)diacetate]
26.4 min: half-life at 50 nM [1]

O=C(O)Cc1ccc2cc(CC(=O)Oc3ccc4c5c3O[C@H]3C(=O)CC[C@@]6(O)[C@@H](C4)N(CC4CC4)CC[C@]536)ccc2c1 [Compound 2i, 2-(6-(2-(((4R,4aS,7aR,12bS)-3-(cyclopropylmethyl)-4a-hydroxy-7-oxo-2,3,4,4a,5,6,7,7a-octahydro-1H-4,12-methanobenzofuro[3,2-e]isoquinolin-9-yl)oxy)-2-oxoethyl)naphthalen-2-yl)acetic acid]
<0.2 ng/mL: Compound 2i conc. ([2]; single i.m. dose of Compound 2, day 0.042 (1 hr), Rat 1) | Compound 2i conc. ([2]; single i.m. dose of Compound 2, day 0.042 (1 hr), Rat 2) | Compound 2i conc. ([2]; single i.m. dose of Compound 2, day 0.042 (1 hr), Rat 3) | Compound 2i conc. ([2]; single i.m. dose of Compound 2, day 0.042 (1 hr), Rat 4) | Compound 2i conc. ([2]; single i.m. dose of Compound 2, day 0.042 (1 hr), Rat 5) | Compound 2i conc. ([2]; single i.m. dose of Compound 2, day 0.33 (8 hr), Rat 1) | Compound 2i conc. ([2]; single i.m. dose of Compound 2, day 0.33 (8 hr), Rat 2) | Compound 2i conc. ([2]; single i.m. dose of Compound 2, day 0.33 (8 hr), Rat 3) | Compound 2i conc. ([2]; single i.m. dose of Compound 2, day 0.33 (8 hr), Rat 4) | Compound 2i conc. ([2]; single i.m. dose of Compound 2, day 0.33 (8 hr), Rat 5) | Compound 2i conc. ([2]; single i.m. dose of Compound 2, day 1, Rat 1) | Compound 2i conc. ([2]; single i.m. dose of Compound 2, day 1, Rat 2) | Compound 2i conc. ([2]; single i.m. dose of Compound 2, day 1, Rat 3) | Compound 2i conc. ([2]; single i.m. dose of Compound 2, day 1, Rat 4) | Compound 2i conc. ([2]; single i.m. dose of Compound 2, day 1, Rat 5) | Compound 2i conc. ([2]; single i.m. dose of Compound 2, day 2, Rat 1) | Compound 2i conc. ([2]; single i.m. dose of Compound 2, day 2, Rat 2) | Compound 2i conc. ([2]; single i.m. dose of Compound 2, day 2, Rat 3) | Compound 2i conc. ([2]; single i.m. dose of Compound 2, day 2, Rat 4) | Compound 2i conc. ([2]; single i.m. dose of Compound 2, day 2, Rat 5) | Compound 2i conc. ([2]; single i.m. dose of Compound 2, day 4, Rat 1) | Compound 2i conc. ([2]; single i.m. dose of Compound 2, day 4, Rat 2) | Compound 2i conc. ([2]; single i.m. dose of Compound 2, day 4, Rat 3) | Compound 2i conc. ([2]; single i.m. dose of Compound 2, day 4, Rat 4) | Compound 2i conc. ([2]; single i.m. dose of Compound 2, day 4, Rat 5) | Compound 2i conc. ([2]; single i.m. dose of Compound 2, day 7, Rat 1) | Compound 2i conc. ([2]; single i.m. dose of Compound 2, day 7, Rat 2) | Compound 2i conc. ([2]; single i.m. dose of Compound 2, day 7, Rat 3) | Compound 2i conc. ([2]; single i.m. dose of Compound 2, day 7, Rat 4) | Compound 2i conc. ([2]; single i.m. dose of Compound 2, day 7, Rat 5) | Compound 2i conc. ([2]; single i.m. dose of Compound 2, day 10, Rat 5)
generally low to not measurable: plasma concentrations of parent Compound 2 and the resultant intermediate ([2]; rat, single i.m. dose of Compound 2, over 91 days)
<0.1 ng/mL: Compound 2i conc. ([2]; single i.m. dose of Compound 2, day 49, Rat 1) | Compound 2i conc. ([2]; single i.m. dose of Compound 2, day 49, Rat 2) | Compound 2i conc. ([2]; single i.m. dose of Compound 2, day 49, Rat 3) | Compound 2i conc. ([2]; single i.m. dose of Compound 2, day 49, Rat 4) | Compound 2i conc. ([2]; single i.m. dose of Compound 2, day 56, Rat 1) | Compound 2i conc. ([2]; single i.m. dose of Compound 2, day 56, Rat 2) | Compound 2i conc. ([2]; single i.m. dose of Compound 2, day 56, Rat 3) | Compound 2i conc. ([2]; single i.m. dose of Compound 2, day 56, Rat 4) | Compound 2i conc. ([2]; single i.m. dose of Compound 2, day 56, Rat 5) | Compound 2i conc. ([2]; single i.m. dose of Compound 2, day 63, Rat 1) | Compound 2i conc. ([2]; single i.m. dose of Compound 2, day 63, Rat 2) | Compound 2i conc. ([2]; single i.m. dose of Compound 2, day 63, Rat 3) | Compound 2i conc. ([2]; single i.m. dose of Compound 2, day 63, Rat 4) | Compound 2i conc. ([2]; single i.m. dose of Compound 2, day 63, Rat 5) | Compound 2i conc. ([2]; single i.m. dose of Compound 2, day 71, Rat 1) | Compound 2i conc. ([2]; single i.m. dose of Compound 2, day 71, Rat 2) | Compound 2i conc. ([2]; single i.m. dose of Compound 2, day 71, Rat 3) | Compound 2i conc. ([2]; single i.m. dose of Compound 2, day 71, Rat 4) | Compound 2i conc. ([2]; single i.m. dose of Compound 2, day 71, Rat 5) | Compound 2i conc. ([2]; single i.m. dose of Compound 2, day 78, Rat 1) | Compound 2i conc. ([2]; single i.m. dose of Compound 2, day 78, Rat 2) | Compound 2i conc. ([2]; single i.m. dose of Compound 2, day 78, Rat 3) | Compound 2i conc. ([2]; single i.m. dose of Compound 2, day 78, Rat 4) | Compound 2i conc. ([2]; single i.m. dose of Compound 2, day 78, Rat 5) | Compound 2i conc. ([2]; single i.m. dose of Compound 2, day 85, Rat 1) | Compound 2i conc. ([2]; single i.m. dose of Compound 2, day 85, Rat 2) | Compound 2i conc. ([2]; single i.m. dose of Compound 2, day 85, Rat 3) | Compound 2i conc. ([2]; single i.m. dose of Compound 2, day 85, Rat 4) | Compound 2i conc. ([2]; single i.m. dose of Compound 2, day 85, Rat 5) | Compound 2i conc. ([2]; single i.m. dose of Compound 2, day 91, Rat 1) | Compound 2i conc. ([2]; single i.m. dose of Compound 2, day 91, Rat 2) | Compound 2i conc. ([2]; single i.m. dose of Compound 2, day 91, Rat 3) | Compound 2i conc. ([2]; single i.m. dose of Compound 2, day 91, Rat 4) | Compound 2i conc. ([2]; single i.m. dose of Compound 2, day 91, Rat 5)

CC(=O)Oc1c(CC(=O)Oc2ccc3c4c2O[C@H]2C(=O)CC[C@@]5(O)[C@@H](C3)N(CC3CC3)CC[C@]425)ccc2c(OC(C)=O)c(CC(=O)Oc3ccc4c5c3O[C@H]3C(=O)CC[C@@]6(O)[C@@H](C4)N(CC4CC4)CC[C@]536)ccc12 [Compound 3, bis((4R,4aS,7aR,12bS)-3-(cyclopropylmethyl)-4a-hydroxy-7-oxo-2,3,4,4a,5,6,7,7a-octahydro-1H-4,12-methanobenzofuro[3,2-e]isoquinolin-9-yl) 2,2′-(1,5-diacetoxynaphthalene-2,6-diyl)diacetate]
14.8 min: half-life at 50 nM [1]

COc1c(CC(=O)Oc2ccc3c4c2O[C@H]2C(=O)CC[C@@]5(O)[C@@H](C3)N(CC3CC3)CC[C@]425)ccc2c(OC)c(CC(=O)Oc3ccc4c5c3O[C@H]3C(=O)CC[C@@]6(O)[C@@H](C4)N(CC4CC4)CC[C@]536)ccc12 [Compound 4, bis((4R,4aS,7aR,12bS)-3-(cyclopropylmethyl)-4a-hydroxy-7-oxo-2,3,4,4a,5,6,7,7a-octahydro-1H-4,12-methanobenzofuro[3,2-e]isoquinolin-9-yl) 2,2′-(1,5-dimethoxynaphthalene-2,6-diyl)diacetate]
28.9 min: half-life at 50 nM [1]
